From article PMC6627609, “Targeting Quorum Sensing: High-Throughput Screening to Identify Novel LsrK Inhibitors” (International Journal of Molecular Sciences, 2019)
Where a name gives a salt, the structure may show the parent alone.

target: LsrK (Salmonella typhimurium, UniProt Q8ZKQ6); assay: biochemical; type: biochemical, S. typhimurium; conditions: not given
Sequence (Q8ZKQ6 whole entry): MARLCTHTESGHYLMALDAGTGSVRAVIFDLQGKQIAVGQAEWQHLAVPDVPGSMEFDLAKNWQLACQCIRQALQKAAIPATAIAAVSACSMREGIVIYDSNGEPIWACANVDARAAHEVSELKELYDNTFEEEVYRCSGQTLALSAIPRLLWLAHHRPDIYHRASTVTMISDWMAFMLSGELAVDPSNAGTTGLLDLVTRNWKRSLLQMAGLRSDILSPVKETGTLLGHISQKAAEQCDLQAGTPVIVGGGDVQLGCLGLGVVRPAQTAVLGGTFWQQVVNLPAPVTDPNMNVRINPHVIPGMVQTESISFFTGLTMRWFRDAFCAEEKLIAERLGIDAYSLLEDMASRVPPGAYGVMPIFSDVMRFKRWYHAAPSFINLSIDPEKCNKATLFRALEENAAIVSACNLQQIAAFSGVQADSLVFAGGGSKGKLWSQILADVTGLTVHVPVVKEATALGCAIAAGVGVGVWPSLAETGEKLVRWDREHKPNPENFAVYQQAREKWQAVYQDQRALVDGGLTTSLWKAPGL

`Cc1cc(O)c(C=O)c2c1C(=O)Oc1c(COC(=O)/C=C/C(=O)O)c(O)c(C(=O)O)c(C)c1O2` [FUMARPRO[…]] gave an IC50 of 7 µM.

In order of falling inhibition at 50 µM:
1. Cc1cc(O)c(C=O)c2c1C(=O)Oc1c(COC(=O)/C=C/C(=O)O)c(O)c(C(=O)O)c(C)c1O2 [FUMARPRO[…]]  150%
2. OCCOCCN1CCN(C(c2ccccc2)c2ccc(Cl)cc2)CC1 (stereo not shown) [HYDROXYZINE PAMOATE]  125%
3. COc1ccc(-c2coc3cc(O)ccc3c2=O)c(O)c1O [KOPARIN]  118%
4. O=c1c(O)c(-c2ccc(O)c(O)c2)oc2c(O)c(O)cc(O)c12 [GOSSYPETIN]  115%
5. CC(=O)Oc1cc(-c2coc3cc(OC(C)=O)c(OC(C)=O)c(OC(C)=O)c3c2=O)cc(OC(C)=O)c1OC(C)=O [IRIGINOL HEXAACEATATE]  114%
6. Oc1c(Cl)cc(Cl)c(Cl)c1Cc1c(O)c(Cl)cc(Cl)c1Cl [HEXACHLOROPHENE]  112%
7. O=C1C=C2CC3(O)COc4c(ccc(O)c4O)C3=C2C=C1O (stereo not shown) [HEMATEIN]  107%
8. O=c1c(-c2cc(O)c(O)c(O)c2)coc2cc(O)c(O)c(O)c12 [IRIGENOL]  90%
9. O=C1C=CC(=O)c2c(O)cccc21 [JUGLONE]  88%
10. Cc1cc2c(C(C)C)c(O)c(O)c(C=O)c2c(O)c1-c1c(C)cc2c(C(C)C)c(O)c(O)c(C=O)c2c1O [GOSSYPOL]  83%
11. CC[n+]1c(-c2ccccc2)c2cc(N)ccc2c2ccc(N)cc21 [HOMIDIUM BROMIDE]  72%
12. CC1=C(CCC(=O)O)c2cc3[nH]c(cc4nc(cc5[nH]c(cc1n2)c(C)c5C(C)O)C(C)=C4C(C)O)c(C)c3CCC(=O)O (stereo not shown) [HAEMATOPORPHYRIN]  55%
13. COc1ccc(-c2oc3c(CC=C(C)C)c(O[C@@H]4O[C@H](CO)[C@@H](O)[C@H](O)[C@H]4O)cc(O)c3c(=O)c2O[C@@H]2O[C@@H](C)[C@H](O)[C@@H](O)[C@H]2O)cc1 [ICARIIN]  36%
14. Cc1c(OCC(F)(F)F)ccnc1C[S+]([O-])c1nc2ccccc2[nH]1 (stereo not shown) [LANSOPRAZOLE]  33%
15. CN(C)c1ccc(C(=C2C=CC(=[N+](C)C)C=C2)c2ccc(N(C)C)cc2)cc1 [GENTIAN VIOLET]  11%
16. CCCCC1=NC2(CCCC2)C(=O)N1Cc1ccc(-c2ccccc2-c2nnn[nH]2)cc1 [IRBESARTAN]  10%
17. CC1=NCCc2c1[nH]c1cc(O)ccc21 [HARMALOL HYDROCHLORIDE]  4%
18. Cc1nccc2c1[nH]c1cc(O)ccc12 [HARMOL HYDROCHLORIDE]  3%
19. CC[C@H](c1ccc(O)cc1)[C@@H](CC)c1ccc(O)cc1 [HEXESTROL]  3%
20. NCCc1c[nH]cn1 [HISTAMINE DIHYDROCHLORIDE]  3%
21. CCCCCC(=O)O[C@]1(C(C)=O)CC[C@H]2[C@@H]3CCC4=CC(=O)CC[C@]4(C)[C@H]3CC[C@@]21C [HYDROXYPROGESTERONE CAPROATE]  3%
22. C=C1CCC2C(CC2(C)C)C(=O)CCC1O (stereo not shown) [ISOKOBUSONE]  3%
23. O=C1OC(CN2CCOCC2)CN1/N=C/c1ccc([N+](=O)[O-])o1 (stereo not shown) [FURALTADONE]  2%
24. O=c1c(-c2ccc(O)cc2)coc2cc(O)cc(O)c12 [GENISTEIN]  2%
25. C=C1C(=O)O[C@@H]2C[C@@]3(C)CCC[C@H](C)C3=C[C@H]12 [HELENINE]  2%
26. C[N+](C)(C)CCCCCC[N+](C)(C)C [HEXAMETHONIUM BROMIDE]  2%
27. O=c1[nH]cnc2nc[nH]c12 [HYPOXANTHINE]  2%
28. CC(C)Oc1ccc2c(=O)c(-c3ccccc3)coc2c1 [IPRIFLAVONE]  2%
29. CCC(NC(C)C)C(O)c1ccc(O)c(O)c1 (stereo not shown) [ISOETHARINE MESYLATE]  2%
30. CC(COc1ccccc1)NC(C)C(O)c1ccc(O)cc1 (stereo not shown) [ISOXSUPRINE HYDROCHLORIDE]  2%
31. CC[N+](CC)(CC)CCOc1cccc(OCC[N+](CC)(CC)CC)c1OCC[N+](CC)(CC)CC [GALLAMINE TRIETHIODIDE]  1%
32. Cc1ccc(S(=O)(=O)NC(=O)NN2CC3CCCC3C2)cc1 (stereo not shown) [GLICLAZIDE]  1%
33. Cc1cnc(C(=O)NCCc2ccc(S(=O)(=O)NC(=O)NC3CCCCC3)cc2)cn1 [GLIPIZIDE]  1%
34. N[C@H]1C(O)O[C@H](CO)[C@@H](O)[C@@H]1O (stereo partly shown) [GLUCOSAMINE HYDROCHLORIDE]  1%
35. N[C@@H](CCC(=O)N[C@@H](CS)C(=O)NCC(=O)O)C(=O)O [GLUTATHIONE]  1%
36. C[C@H](CCC(=O)NCC(=O)O)[C@H]1CC[C@H]2[C@@H]3[C@H](O)C[C@@H]4C[C@H](O)CC[C@]4(C)[C@H]3C[C@H](O)[C@]12C [GLYCOCHOLIC ACID]  1%
37. N[C@@H](C(=O)O)[C@@H](O)[C@H](O)[C@H](O)CO [GL[…]]  1%
38. COC1=CC(=O)C[C@@H](C)[C@]12Oc1c(Cl)c(OC)cc(OC)c1C2=O [GRISEOFULVIN]  1%
39. COc1cc(O)c2c(=O)cc(C)oc2c1CC=C(C)C [HETEROPEUCENIN. METHYL ETHER]  1%
40. CCN(CC)CCNc1ccc(CO)c2sc3ccccc3c(=O)c12 [HYCANTHONE]  1%
41. Cc1cccc(C(=O)O)c1O [HYDROXYTOLUIC ACID]  1%
42. Cc1cc(O)c(C=O)c(O)c1C(=O)O [H[…]]  1%
43. COc1c(O)cc(O)cc1O [IRETOL]  1%
44. COc1cc(-c2coc3cc(O[C@@H]4O[C@H](CO)[C@@H](O)[C@H](O)[C@H]4O)c(OC)c(O)c3c2=O)cc(O)c1OC [IRIDIN]  1%
45. C/C=C/c1ccc2c(c1)OCO2 [ISOSAFROLE]  1%
46. O=C(O)/C=C/C=C/c1ccccc1 [JUAREZIC ACID]  1%
47. CN1CCC(=C2c3ccccc3CC(=O)c3sccc32)CC1 [KETOTIFEN FUMARATE]  1%
48. CC1(C)C[C@@H]2C(=O)CC[C@H]3O[C@]3(C)CC[C@H]21 [KOBUSONE]  1%
49. CC(C)=CCC1=C(O)C(=O)c2ccccc2C1=O [LAPACHOL]  1%
50. CC(=O)O[C@@H]1C[C@H]2C(C)(C)C(=O)C=C[C@]2(C)[C@H]2CC[C@@]3(C)[C@H](c4ccoc4)OC(=O)[C@H]4O[C@]43[C@@]21C [GEDUNIN]  0%
51. CO/N=C1\CN(c2nc3c(cc2F)c(=O)c(C(=O)O)cn3C2CC2)CC1CN (stereo not shown) [GEMIFLOXACIN MESYLATE]  0%
52. O=C1O[C@H](CO)[C@@H](O)[C@H](O)[C@H]1O [GLUCONOLACTONE]  0%
53. C[N+]1(C)CCC(OC(=O)C(O)(c2ccccc2)C2CCCC2)C1 (stereo not shown) [GLYCOPYRROLATE]  0%
54. COc1ccccc1OCC(O)CO (stereo not shown) [GUAIFENESIN]  0%
55. N=C(N)N/N=C/c1c(Cl)cccc1Cl [GUANABENZ ACETATE]  0%
56. CC1(C)O[C@@H]2C[C@H]3[C@@H]4CCC5=CC(=O)CC[C@]5(C)[C@@]4(F)[C@@H](O)C[C@]3(C)[C@]2(C(=O)CCl)O1 [HALCINONIDE]  0%
57. COc1ccc([C@@H]2CC(=O)c3c(O)cc(O)cc3O2)cc1O [HESPERETIN]  0%
58. CCCCCCc1ccc(O)cc1O [HEXYLRESORCINOL]  0%
59. C[N+]1(C)[C@@H]2CC[C@H]1C[C@@H](OC(=O)C(O)c1ccccc1)C2 (stereo partly shown) [HOMATROPINE METHYLBROMIDE]  0%
60. Oc1ccc(O)cc1 [HYDROQUINONE]  0%
61. COc1ccc2c(C)cc(=O)oc2c1 [H[…] ETHER]  0%
62. CC(C)[N+]1(C)[C@@H]2CC[C@H]1C[C@@H](OC(=O)C(CO)c1ccccc1)C2 (stereo partly shown) [IPRATROPIUM BROMIDE]  0%
63. CC(C)Nc1ncccn1 [ISAXONINE]  0%
64. O=[N+]([O-])O[C@@H]1CO[C@H]2[C@@H]1OC[C@@H]2O [ISOSORBIDE MONONITRATE]  0%
65. O=c1c(O)c(-c2ccc(O)cc2)oc2cc(O)cc(O)c12 [KAEMPFEROL]  0%
66. COC1=CC(=O)O[C@@H](/C=C/c2ccccc2)C1 [KAWAIN]  0%
67. O=C(c1ccccc1)c1ccc2n1CCC2C(=O)O (stereo not shown) [KETOROLAC TROMETHAMINE]  0%
68. OC[C@H]1O[C@@H](n2cnc3c(NCc4ccco4)ncnc32)[C@H](O)[C@@H]1O [KINETIN RIBOSIDE]  0%

same assay, conditions: 50 µM

In order of rising “Inhibition (%)” value:
1. CCOC(=O)c1ncn2c1CN(C)C(=O)c1cc(F)ccc1-2 [FUMAZENIL]  0
2. NC(=O)CC[C@H](N)C(=O)O [GLUTAMINE (L)]  0
3. CC[C@H](CC[C@@H](C)[C@H]1CC[C@H]2[C@@H]3CC[C@H]4C[C@@H](O)CC[C@]4(C)[C@H]3CC[C@]12C)C(C)C [FUCOSTANOL]  1
4. Cl.O=c1[nH]oc2c1CCNC2 [GABOXADOL HYDROCHLORIDE]  1
5. C[N+]1(C)CCOC(O)(c2ccc(-c3ccc(C4(O)C[N+](C)(C)CCO4)cc3)cc2)C1.[Br-].[Br-] (stereo not shown) [HEMICHOLINIUM BROMIDE]  1
6. COc1ccc([C@@H]2CC(=O)c3c(O)cc(O[C@@H]4O[C@H](CO[C@@H]5O[C@@H](C)[C@H](O)[C@@H](O)[C@H]5O)[C@@H](O)[C@H](O)[C@H]4O)cc3O2)cc1O [HESPERIDIN]  1
7. CC1=C(/C=C/C(C)=C/C=C/C(C)=C\C(=O)O)C(C)(C)CCC1 [ISOTRETINON]  1
8. C[C@H]1O[C@H](OC2[C@@H](O)[C@@H](O)C(O)[C@H](O)[C@H]2O)[C@@H](N)C[C@@H]1N=C(N)C(=O)O.Cl (stereo partly shown) [KASUGAMYCIN HYDROCHLORIDE]  1
9. CC(=O)O[C@H]1CC[C@]2(C)C3=C(CC[C@H]2C1(C)C)[C@]1(C)CC[C@H]([C@H](C)CCC=C(C)C)[C@@]1(C)CC3 [LANOSTEROL ACETATE]  1
10. COc1cc(-c2coc3cc(OCc4ccccc4)c(OC)c(O)c3c2=O)cc(O)c1OC [IRIGENIN. 7-BENZYL ETHER]  2
11. CCC(Cc1c(I)cc(I)c(N)c1I)C(=O)O (stereo not shown) [IOPANIC ACID]  16
12. CCCCS(=N)(=O)CCC(N)C(=O)O [L-BUTHIONINE SULFOXIMINE]  20
13. O=c1c(O)c(-c2ccc(O)c(O)c2)oc2c(O[C@@H]3O[C@H](CO)[C@@H](O)[C@H](O)[C@H]3O)c(O)cc(O)c12 [GOSSYPIN]  57
